{
  "source": "paper PMC5383603",
  "about": "(Journal of Korean Medical Science, 2017)",
  "key": {"[1]": {"test_system": "gastric acid secretion", "conditions": "cited from earlier work"}, "[2]": {"conditions": "mean ± SD"}, "[3]": {"assay": "Adverse events in the clinical study", "format": "in vivo, healthy Korean volunteers", "conditions": "CYP2C19 PM group; 20 mg oral once daily for 8 days"}},
  "note": "Read-outs that look alike come from different tables or passages of the source.",
  "data": [
    {"smiles": "COc1c(C)cnc(C[S+]([O-])c2nc3ccc(O)cc3[nH]2)c1C", "note": "(stereo not drawn) [5-O-demethylomeprazole]", "values": [
      {"measurement": "effect on gastric acid secretion", "setting": "[1]", "result": "does not have an effect on gastric acid secretion"}
    ]},
    {"smiles": "COc1ccc2nc(S(=O)(=O)Cc3ncc(C)c(OC)c3C)[nH]c2c1", "note": "[omeprazole sulfone]", "values": [
      {"measurement": "Metabolic ratio omeprazole sulfone (AUC0→12hr, omeprazole sulfone/AUC0→12hr, omeprazole)", "setting": "[2]; multiple dosing, EM (n = 8)", "result": "2.04 ± 2.39"},
      {"measurement": "Metabolic ratio omeprazole sulfone (AUC0→12hr, omeprazole sulfone/AUC0→12hr, omeprazole)", "setting": "[2]; multiple dosing, IM (n = 6)", "result": "0.87 ± 0.19"},
      {"measurement": "Metabolic ratio omeprazole sulfone (AUC0→12hr, omeprazole sulfone/AUC0→12hr, omeprazole)", "setting": "[2]; multiple dosing, PM (n = 8)", "result": "0.90 ± 0.30"},
      {"measurement": "Metabolic ratio omeprazole sulfone (AUC0→12hr, omeprazole sulfone/AUC0→12hr, omeprazole)", "setting": "[2]; single dosing, EM (n = 8)", "result": "0.78 ± 0.17"},
      {"measurement": "Metabolic ratio omeprazole sulfone (AUC0→12hr, omeprazole sulfone/AUC0→12hr, omeprazole)", "setting": "[2]; single dosing, IM (n = 6)", "result": "2.89 ± 2.63"},
      {"measurement": "Metabolic ratio omeprazole sulfone (AUC0→12hr, omeprazole sulfone/AUC0→12hr, omeprazole)", "setting": "[2]; single dosing, PM (n = 8)", "result": "0.65 ± 0.08"}
    ]},
    {"smiles": "COc1ccc2[nH]c([S+]([O-])Cc3ncc(C)c(OC)c3C)nc2c1", "note": "(stereo not drawn) [omeprazole, reference compound]", "values": [
      {"measurement": "omeprazole-related adverse event", "setting": "[3]", "result": "No omeprazole-related adverse event"},
      {"measurement": "duration of effect after a single dose", "setting": "[1]; drug still effective after a single dose", "result": "24 to 72", "unit": "h"}
    ]}
  ]
}
